Assay results: patent US20080004281A1, “METHODS FOR THE MODULATION OF CRP BY THE SELECTIVE MODULATION OF PPAR DELTA” (KALYPSYS, INC., priority 2006, published 2008)

System: plasma CRP
Assay: Plasma CRP in hyperlipidemic obese rhesus macaques, dose-escalating treatment
Type: in vivo
Protocol: In the present study, n=6 male obese rhesus macaques were selected for the study and prepared with 4 weeks of diet run-in (week −4 to week 0). At week 0, blood samples were taken in order to determine baseline plasma levels of CRP were measured prior to beginning dosage with Compound 1 as tosylate salt. Dosage began on the same day at 6 mg/kg/day in divided doses, given with food, and continued for four weeks. Dose was subsequently escalated at 4-week intervals to 12 mg/kg/d, 24 mg/kg/d, and finally 48 mg/kg/day. Plasma samples were taken at the close of each 4-week regimen, and a final sample was taken after 4 weeks of washout following discontinuation of dosing.
Quantitative measurements of plasma CRP in each sample taken were made by LabCorp, Inc. (Laboratory Corporation of America) by a multi-calibrator based high sensitivity wide ranged method using a immunoturbidometric assay. The limit of quantitation for the assay was 0.05 mg/dL and the highest point on the calibrator was 32 mg/dL. Mean values as percent change from baseline, and standard deviation as percent change from baseline, were calculated across the group and are shown in Table 2. Mean values for weeks 8-16 fell below the limit of quantiatation, and no data could therefore be reported for the standard deviation.

`C[C@@H]1CN(c2ccc(OC(F)(F)F)cc2)C[C@H](C)N1S(=O)(=O)c1cccc2c1CC(C(=O)O)C2` (stereo partly drawn) [Compound 1, 4-[cis-2,6-Dimethyl-4-(4-trifluoromethoxy-phenyl)-piperazine-1-sulfonyl]-indan-2-carboxylic acid] was tested, and the “plasma CRP change” value (over 16 weeks of dose-escalating treatment, hyperlipidemic rhesus macaques) was “significantly reduced”, the “CRP levels during the washout period” value (washout period after 16 weeks of dosing) was “reverted back to the pre-treatment levels” and the Mean Plasma CRP (week 4, 6 mg/kg per day in divided doses with food, as tosylate salt, n=6 male obese rhesus macaques, baseline week 0 = 0.233) was 0.166 mg/dL. It also gave a Mean Plasma CRP (week 8, 12 mg/kg per day, as tosylate salt, LOQ 0.05) of under 0.05 mg/dL, a Mean Plasma CRP (week 12, 24 mg/kg per day, as tosylate salt, LOQ 0.05) of under 0.05 mg/dL and a Mean Plasma CRP (week 16, 48 mg/kg per day, as tosylate salt, LOQ 0.05) of under 0.05 mg/dL. It also gave a Mean Plasma CRP (week 20, after 4 weeks of washout following discontinuation of dosing (dose 0)) of 0.183 mg/dL.
